The source of these data is ChEMBL document CHEMBL4613297, “Peptides Mimicking the β7/β8 Loop of HIV-1 Reverse Transcriptase p51 as "Hotspot-Targeted" Dimerization Inhibitors” (ACS Med Chem Lett, 2020).

The source made the active and inactive calls. The calls are words filed in the database; no cut-off is given here. Where a SMILES comes first, the peptide text is derived from it. Bridges are numbered along the chain shown (N, C = ends). A value given as a limit tells only on which side of the number the result lay.

For test [1], the target named is Human immunodeficiency virus type 1 reverse transcriptase (Human immunodeficiency virus 1) (UniProt Q72547). The test can be described thus: Inhibition of recombinant HIV-1 group M subtype B reverse transcriptase p51/p66 expressed in Escherichia coli M15 assessed as change in melting temperature at 100 uM incubated for 1 hr by sypro orange dye based differential scanning fluorimetric analysis. To be noted: HIV-1 M:B.

Test [2] deals with T1, Human immunodeficiency virus type 1 reverse transcriptase (Human immunodeficiency virus 1, UniProt Q72547). The test can be described thus: Inhibition of HIV-1 reverse transcriptase His-tagged p51 heterodimerization with HIV-1 reverse transcriptase p66 incubated for 16 hrs by ELISA.
Test [3] addresses T1, Human immunodeficiency virus type 1 reverse transcriptase. Briefly: Inhibition of recombinant HIV-1 BH10 reverse transcriptase p51/p66 expressed in Escherichia coli preincubated for 10 mins followed by D38/25PGA template-primer addition and measured after 10 to 30 secs by denaturing PAGE based single nucleotide incorporation assay. Also noted: species or system Human immunodeficiency virus type 1 BH10.

Test [4] concerns the target Human immunodeficiency virus type 1 reverse transcriptase (Human immunodeficiency virus 1) (UniProt Q72547). Briefly: Inhibition of RNase H activity of recombinant HIV-1 BH10 reverse transcriptase p51/p66 expressed in Escherichia coli at 100 uM. To be noted: Human immunodeficiency virus type 1 BH10.
The target in test [5] is T1, Human immunodeficiency virus type 1 reverse transcriptase. Briefly: Inhibition of recombinant HIV-1 BH10 reverse transcriptase p51/p66 expressed in Escherichia coli assessed as reduction in recovery of DNA polymerase activity preincubated with 15% acetonitrile for 15 hrs followed by compound addition and acetonitrile reduced to <1% using poly(rA)/oligo(dT)16 as template/primer in presence of [3H]dTTP. Also noted: species or system Human immunodeficiency virus type 1 BH10.

Test [6] has as its target Human immunodeficiency virus type 1 reverse transcriptase (Human immunodeficiency virus 1) (UniProt Q72547). The test can be described thus: Inhibition of recombinant HIV-1 BH10 reverse transcriptase p51/p66 expressed in Escherichia coli assessed as reduction in recovery of DNA polymerase activity at 200 uM preincubated with 15% acetonitrile for 15 hrs followed by compound addition and acetonitrile reduced to <1% using poly(rA)/oligo(dT)16 as template/primer in presence of [3H]dTTP relative to control. To be noted: Human immunodeficiency virus type 1 BH10.

On to `Cc1cn([C@@H]2O[C@H](CO[Si](C)(C)C(C)(C)C)[C@]3(C=CS(=O)(=O)O3)[C@H]2O[Si](C)(C)C(C)(C)C)c(=O)[nH]c1=O`, for which, in test [1], the ΔTm is -1.4 °C.
For H-IPSINNETPGI-OH, in test [1], the thermal shift (ΔTm) is -13.6 °C. In addition, the IC50 in test [2] was over 150 µM; in test [3] it was over 145 µM. In addition, in test [4], the inhibition result was “inactive”.
For `CC[C@H](C)[C@H](NC(=O)CNC(=O)[C@@H]1CCCN1C(=O)[C@@H](NC(=O)[C@H](CCC(=O)O)NC(=O)[C@H](CC(N)=O)NC(=O)[C@H](CC(N)=O)NC(=O)[C@@H](NC(=O)[C@H](CO)NC(=O)[C@@H]1CCCN1C(=O)[C@@H](NC(=O)[C@@H](NC(=O)[C@@H](N)Cc1ccccc1)[C@@H](C)O)[C@@H](C)CC)[C@@H](C)CC)C(C)O)C(=O)N[C@@H](CCCNC(=N)N)C(=O)N[C@@H](Cc1ccc(O)cc1)C(=O)O` (single isomer, unassigned), in test [1], the ΔTm was -15.6 °C. Also, the IC50 in test [3] is over 145 µM. The inhibition result in test [4] was “inactive”.
For the compound `CC[C@H](C)[C@@H]1NC(=O)CNC(=O)[C@@H]2CCCN2C(=O)[C@H]([C@@H](C)O)NC(=O)C(CCC(=O)O)NC(=O)[C@H](CC(N)=O)NC(=O)C(CC(N)=O)NC(=O)[C@@H]([C@@H](C)CC)NC(=O)[C@H](CO)NC(=O)[C@@H]2CCCN2C(=O)[C@H]([C@@H](C)CC)NC(=O)[C@@H](N)CSSC[C@@H](C(=O)O)NC1=O` (stereo partly drawn), in test [1], the ΔTm was -14.5 °C. Also, the values for the IC50 in test [2], in test [3] and in test [5] were 137 µM, over 145 µM and over 250 µM, respectively. The inhibition entry in test [4] was “inactive”. The inhibition in test [6] was under 5%.
With `CC[C@H](C)[C@@H]1NC(=O)[C@H](CO)NC(=O)[C@H](N)CSSC[C@@H](C(=O)O)NC(=O)[C@@H]2CCCN2C(=O)[C@H]([C@@H](C)O)NC(=O)[C@H](CCC(=O)O)NC(=O)[C@H](CC(N)=O)NC(=O)[C@H](CC(N)=O)NC1=O`, in test [1], the ΔTm was -15.8 °C. Moreover, the results for the IC50 in test [2], in test [3] and in test [5] were 61 µM, over 145 µM and over 250 µM, respectively. For the same compound, the inhibition entry in test [4] is “inactive”. The inhibition in test [6] worked out at 43%.
Regarding `CC[C@H](C)[C@@H]1NC(=O)[C@H](CCCNC(=N)N)NC(=O)[C@H](Cc2ccc(O)cc2)NC(=O)[C@H]2CCCN2C(=O)[C@@H]2CCCN2C(=O)[C@H](Cc2ccccc2)NC(=O)[C@H]([C@H](C)O)NC(=O)[C@H]([C@@H](C)CC)NC(=O)[C@@H]2CCCN2C(=O)[C@H](CC(N)=O)NC(=O)[C@H]([C@@H](C)CC)NC(=O)[C@@H](CO)NC(=O)[C@H](CC(N)=O)NC(=O)[C@@H](CCC(=O)O)NC(=O)[C@H]([C@H](C)O)NC(=O)[C@@H]2CCCN2C(=O)CNC1=O`, the ΔTm in test [1] was -15 °C. The IC50 in test [3] was over 145 µM. The inhibition result in test [4] was “inactive”.
Regarding `CC[C@H](C)[C@@H]1NC(=O)[C@@H](N)CSSC[C@@H](C(=O)O)NC(=O)[C@H](CCC(=O)O)NC(=O)[C@H](CC(N)=O)NC(=O)[C@H](CC(N)=O)NC1=O` (H-CINNEC-OH; disulfide 1-6), in test [1], the ΔTm was -15.8 °C. Also, the IC50 in test [2] is 37 µM; in test [3], 109 µM; in test [5] it was 203 µM. Moreover, in test [4], the inhibition result is “inactive”.

In general, ΔTm refers to the change in melting temperature against a reference sample. The IC50 is the point on the concentration scale where inhibition reaches its midpoint. For orientation: inhibition means the percentage by which the read-out fell short of the control.
